The nature of one data set: Aqueous solubility. In kind it is physicochemical. Particulars: McIlvaine buffer pH 6.8, 2.5% DMSO, 24 h shaking; for solubility at 24 h: McIlvaine buffer pH 6.8 with 2.5% DMSO, pH 6.8, aqueous buffer, kinetic from dmso stock. How it is done: Assay for Determination of Aqueous Solubility […] After 24 h of shaking, the solutions or suspensions are filtered and analyzed by LC-UV. The amount dissolved in buffer is compared to the amount dissolved in the acetonitrile/water (1/1) solution.

A short description of data set [1]: Metabolic stability with human liver microsomes. In kind it is in vitro ADME. Conditions: for half-life at 1 μM: human, microsomes, pH 7.6.
The target of data set [2] is Human neutrophil elastase (Homo sapiens (Human), UniProt P08246). The data set is described as follows: Human Neutrophil Elastase Assay. Particulars: human neutrophil elastase, substrate MeOSuc-Ala-Ala-Pro-Val-AMC 250 μM, pH 7.5; read-out: IC50. The class given is biochemical.
Human neutrophil elastase, sequence (P08246 30-247): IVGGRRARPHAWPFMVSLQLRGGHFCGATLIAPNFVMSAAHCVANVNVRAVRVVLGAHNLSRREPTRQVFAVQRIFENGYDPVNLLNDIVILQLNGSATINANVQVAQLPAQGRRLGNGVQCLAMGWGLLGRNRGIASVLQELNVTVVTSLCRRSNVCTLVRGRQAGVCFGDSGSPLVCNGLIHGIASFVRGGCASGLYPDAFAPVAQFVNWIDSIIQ
The subject of a further data set is human hepatocytes. Put plainly: Metabolic stability with human hepatocytes. The class given is in vitro ADME. Conditions: human hepatocyte suspension, 1 μM test compound, scaled with well stirred model. How it is done:
Assay for the Determination of Metabolic Stability with Human Hepatocytes The metabolic degradation of the test compound is assayed in a human hepatocyte suspension. Human hepatocytes (typically cryopreserved) are incubated in an appropriate buffer system (e.g. […] Samples are transferred into acetonitrile and pelleted by centrifugation (5 min) The supernatant is transferred to a new 96-deepwell plate, evaporated under nitrogen and resuspended. The decline of parent compound is analyzed by LC-MS/MS.

Data set [3] deals with neutrophil elastase in human plasma (Homo sapiens (Human), UniProt P08246). The data set is described as follows: Neutrophil elastase inhibitory activity in human plasma (zymosan-stimulated blood). Conditions: neutrophil elastase enriched human plasma from zymosan-stimulated blood; read-out: EC50. In kind it is biochemical.
neutrophil elastase in human plasma, sequence (P08246 30-247): as above
A short description of data set [4]: Drug transport across human Caco-2 cells. The class given is in vitro ADME. Conditions: human; for Papp A→B at 10 µM / Papp B→A at 10 µM: Caco-2, pH 7.2, Caco-2 monolayers, pH 7.2, 37° C.; for Papp A→B at 10 µM: apical-to-basal, read-out: PEAB; for Papp B→A at 10 µM: basal-to-apical, read-out: PEBA; for efflux ratio at 10 μM: Caco-2, pH 7.2, PEBA/PEAB, Caco-2.
Description: Assay for Determination of Drug Transport Across Human Caco-2 Cells The assay provides information on the potential of a compound to pass the cell membrane, on the extent of oral absorption as well as on whether the compound is actively transported by uptake and/or efflux transporters. […] The compounds are assigned to permeability/absorption classes by comparison of the AB permeabilities with the AB permeabilities of reference compounds with known in vitro permeability and oral absorption in the human. Identical or similar permeabilities in both transport directions indicate passive permeation, vectorial permeability points to additional active transport mechanisms. […] Active transport is concentration-dependently saturable. Caco-2 cells (1-2*10^5 cells/cm^2 area) are seeded on filter inserts (Costar transwell polycarbonate or PET filters, 0.4 nm pore size) and cultured (DMEM) for 10 to 25 days. […] The transport solution (TL) is applied ici to the apical or basolateral donor side for measuring A-B or B-A permeability (3 filter replicates), respectively. The receiver side contains HTP-4 buffer supplemented with 2% BSA. […] Sampled receiver volumes are replaced with fresh receiver solution.

≈ marks a conversion by molar mass, not a printed value.

`CCS(=O)(=O)c1cc(C#N)ccc1C1NC(=O)N(c2cccc(C(F)(F)F)c2)C2=C1C(=O)CC2` (stereo not drawn) [Example 14, 4-(2,5-Dioxo-1-(3-(trifluoromethyl)phenyl)-2,3,4,5,6,7-hexahydro-1H-cyclopenta[d]pyrimidin-4-yl)-3-(ethylsulfonyl)benzonitrile] came in with a solubility at 24 h in the data set “Aqueous solubility” of 45 µg/mL (≈ 91.9 µM). Besides, the half-life at 1 μM in data set [1] was more than 2.17 h. Also, the IC50 in data set [2] is 4.7 nM. For the same compound, the “CL (predicted human hepatic in vivo blood clearance)” value in the data set on human hepatocytes was 4 mL/min/kg.

`CNC(=O)N1C(=O)N(c2cccc(C(F)(F)F)c2)C2=C(C(=O)CC2)C1c1ccc(C#N)cn1` (stereo not drawn) [Example 50.1] showed a solubility at 24 h in the data set “Aqueous solubility” of 41 µg/mL (≈ 90 µM). In addition, in data set [3], the EC50 was 16 nM. Moreover, in data set [2], the IC50 was 4 nM. For the same compound, in data set [4], the Papp A→B at 10 µM came to 66.7 ×10⁻⁶ cm/s, the Papp B→A at 10 µM was found to be 66.1 ×10⁻⁶ cm/s and the efflux ratio at 10 μM was found to be 1. Moreover, in the data set with human hepatocytes, the “CL (predicted human hepatic in vivo blood clearance)” value is 1 mL/min/kg.

Compound `N#Cc1ccc(C2C3=C(CCC3=O)N(c3cccc(C(F)(F)F)c3)C(=O)N2CC(=O)N2CCC2)cc1` (stereo not drawn) [Example 6.3] showed an Aqueous solubility in the data set “Aqueous solubility” of 121 µg/mL. Moreover, the “t1/2 INVITRO” value in data set [1] (pooled human liver microsomes, 1 mg/ml protein, 1 μM test compound, 37° C., NADPH) was more than 2.17 h. The “CL (predicted human hepatic in vivo blood clearance)” value in the data set with human hepatocytes is 4 mL/min/kg.

In turn, `CC(C)NC(=O)N1C(=O)N(c2cccc(C(F)F)c2)C2=C(C(=O)CC2)C1c1ccc(C#N)cc1S(C)(=O)=O` (stereo not drawn) [Example 53.4] gave a solubility at 24 h in the data set “Aqueous solubility” of 14 µg/mL (≈ 25.8 µM). The compound also gave a half-life at 1 μM in data set [1] of more than 2.17 h. Besides, in data set [4], the Papp A→B at 10 µM amounted to 9.85 ×10⁻⁶ cm/s and the Papp B→A at 10 µM is 94.4 ×10⁻⁶ cm/s. Also, the “CL (predicted human hepatic in vivo blood clearance)” value in the data set with human hepatocytes is 0 mL/min/kg.

The compound `N#Cc1ccc(C2C3=C(CCC3=O)N(c3cccc(C(F)(F)F)c3)C(=O)N2C(=O)N[C@H]2CCC[C@@H]2O)cc1` (stereo partly drawn) [Example 42.4] returned a solubility at 24 h in the data set “Aqueous solubility” of 21 µg/mL (≈ 40 µM). In addition, in data set [1], the half-life at 1 μM is more than 2.17 h. In data set [4], the Papp A→B at 10 µM came to 39.7 ×10⁻⁶ cm/s, the Papp B→A at 10 µM was 78 ×10⁻⁶ cm/s and the efflux ratio at 10 μM came out at 2. In the data set with human hepatocytes, the “CL (predicted human hepatic in vivo blood clearance)” value was 0 mL/min/kg.

`N#Cc1ccc([C@@H]2C3=C(CCC3=O)N(c3cccc(C(F)(F)F)c3)C(=O)N2C(=O)NCCO)cc1` [Example 7.2A, (R)-4-(4-Cyanophenyl)-N-(2-hydroxyethyl)-2,5-dioxo-1-(3-(trifluoromethyl)phenyl)-4,5,6,7-tetrahydro-1H-cyclopenta[d]pyrimidine-3(2H)-carboxamide] came in with a solubility at 24 h in “Aqueous solubility” of 72 µg/mL (≈ 149 µM). For the same compound, the half-life at 1 μM in data set [1] is more than 2.17 h. Besides, in data set [4], the Papp A→B at 10 µM was determined as 4.03 ×10⁻⁶ cm/s and the Papp B→A at 10 µM turned out to be 63.3 ×10⁻⁶ cm/s. The “CL (predicted human hepatic in vivo blood clearance)” value with human hepatocytes is 0 mL/min/kg.

In the case of `CNC(=O)N1C(=O)N(c2cccc(C(F)(F)F)c2)C2=C(C(=O)CC2)[C@H]1c1ccc(C#N)cc1` [Example 7.1A, (R)-4-(4-Cyanophenyl)-N-methyl-2,5-dioxo-1-(3-(trifluoromethyl)phenyl)-4,5,6,7-tetrahydro-1H-cyclopenta[d]pyrimidine-3(2H)-carboxamide], in the data set “Aqueous solubility”, the concentration in solution (solubility at 24 h) came to 23 µg/mL (≈ 50.6 µM). In data set [1], this compound yielded a half-life at 1 μM of more than 2.17 h. Besides, in data set [4], the Papp A→B at 10 µM came to 72.7 ×10⁻⁶ cm/s and the Papp B→A at 10 µM worked out at 68.1 ×10⁻⁶ cm/s. Moreover, in the data set with human hepatocytes, the “CL (predicted human hepatic in vivo blood clearance)” value was 3 mL/min/kg.

In the data set “Aqueous solubility”, `CS(=O)(=O)c1cc(C#N)ccc1C1NC(=O)N(c2cccc(C(F)F)c2)C2=C1C(=O)CC2` (stereo not drawn) [Example 15.4, 4-(1-(3-(difluoromethyl)phenyl)-2,5-dioxo-2,3,4,5,6,7-hexahydro-1H-cyclopenta[d]pyrimidin-4-yl)-3-(methylsulfonyl)benzonitrile] showed a solubility at 24 h of 69 µg/mL (≈ 151 µM). In data set [1], this compound registered a half-life at 1 μM of more than 2.17 h. In data set [2], the IC50 amounted to 9.7 nM. In the data set on human hepatocytes, the “CL (predicted human hepatic in vivo blood clearance)” value was 0 mL/min/kg.

The record behind these values is patent publication US9290459B1, “Substituted bicyclic dihydropyrimidinones and their use as inhibitors of neutrophil elastase activity” (Boehringer Ingelheim International GmbH, priority 2013, dated 2016).
